Source: BindingDB's records for doi:10.1021/acs.jnatprod.8b00318 (Indian Institute of Integrative Medicine (Csir), 2019)

Columns and labels:
[1] = target: Prostaglandin G/H synthase 1 (Ovis aries) (UniProt P05979); assay: Inhibition of ovine COX1 assessed as reduction in prostaglandin E2 production incubated for 10 mins before arachidonic acid addition and measured after 25 mins by LC-MS/MS analysis
[2] = target: Prostaglandin G/H synthase 2 (Homo sapiens) (UniProt P35354); assay: Inhibition of COX2 (unknown origin) assessed as reduction in prostaglandin E2 production incubated for 10 mins before arachidonic acid addition and measured after 25 mins by LC-MS/MS analysis
Chain of Prostaglandin G/H synthase 2 (Homo sapiens) (P35354 whole entry, looked up): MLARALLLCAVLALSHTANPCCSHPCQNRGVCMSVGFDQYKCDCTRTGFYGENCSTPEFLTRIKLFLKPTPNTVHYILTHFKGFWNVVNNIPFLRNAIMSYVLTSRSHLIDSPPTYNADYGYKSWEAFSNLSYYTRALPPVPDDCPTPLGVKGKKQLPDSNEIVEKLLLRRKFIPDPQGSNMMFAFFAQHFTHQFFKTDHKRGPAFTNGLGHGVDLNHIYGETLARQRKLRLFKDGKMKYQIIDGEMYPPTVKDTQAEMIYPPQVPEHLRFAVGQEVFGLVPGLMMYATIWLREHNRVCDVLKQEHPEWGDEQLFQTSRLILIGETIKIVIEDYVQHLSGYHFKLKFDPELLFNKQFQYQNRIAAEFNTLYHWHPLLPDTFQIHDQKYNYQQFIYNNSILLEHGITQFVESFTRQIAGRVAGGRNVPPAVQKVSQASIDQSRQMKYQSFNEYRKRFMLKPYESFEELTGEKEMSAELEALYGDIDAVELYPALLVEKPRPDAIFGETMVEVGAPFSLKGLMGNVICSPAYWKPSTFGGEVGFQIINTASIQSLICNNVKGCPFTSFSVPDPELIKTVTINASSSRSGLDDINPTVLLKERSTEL

COC(=O)[C@@H](C)c1ccc2c(C)cc(O)c(C)c2c1 showed an IC50 [1] of 31 µM and an IC50 [2] of 66.1 µM.
